This note sets out measurements from ChEMBL document CHEMBL1147165, “Synthesis and alpha(1)-adrenoceptor antagonist activity of derivatives and isosters of the furan portion of (+)-cyclazosin” (Bioorg Med Chem, 2007).

The species named for one test is Rattus norvegicus. Nature of the test: Selectivity ratio for rat adrenergic Alpha-1D receptor over rat adrenergic Alpha-1B receptor. Type of test: functional.
The target in test [1] is T1, Alpha-1A adrenergic receptor (Homo sapiens, UniProt P35348).
T1 sequence (P35348 whole entry): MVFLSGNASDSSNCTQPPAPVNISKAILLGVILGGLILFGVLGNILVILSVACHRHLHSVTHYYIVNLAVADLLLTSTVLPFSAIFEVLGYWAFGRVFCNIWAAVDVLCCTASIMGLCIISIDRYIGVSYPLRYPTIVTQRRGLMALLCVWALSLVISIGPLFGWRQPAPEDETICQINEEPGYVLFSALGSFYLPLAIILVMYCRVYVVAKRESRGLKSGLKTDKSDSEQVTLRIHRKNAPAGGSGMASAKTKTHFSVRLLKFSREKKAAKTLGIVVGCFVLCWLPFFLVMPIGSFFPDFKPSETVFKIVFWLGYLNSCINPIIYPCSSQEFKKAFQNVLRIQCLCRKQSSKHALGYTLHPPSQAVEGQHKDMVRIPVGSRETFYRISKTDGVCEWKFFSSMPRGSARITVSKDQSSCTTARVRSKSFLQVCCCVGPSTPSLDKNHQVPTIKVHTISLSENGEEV
Nature of the test: Displacement of [3H]prazosin from human adrenergic alpha-1a receptor expressed in CHO cells. It counts as cell-based. For orientation: In a radioligand displacement assay an active substance lowers the binding of a labelled ligand.

Test [2] addresses T2, Alpha-1D adrenergic receptor (Rattus norvegicus, UniProt P23944).
T2 sequence (P23944 whole entry): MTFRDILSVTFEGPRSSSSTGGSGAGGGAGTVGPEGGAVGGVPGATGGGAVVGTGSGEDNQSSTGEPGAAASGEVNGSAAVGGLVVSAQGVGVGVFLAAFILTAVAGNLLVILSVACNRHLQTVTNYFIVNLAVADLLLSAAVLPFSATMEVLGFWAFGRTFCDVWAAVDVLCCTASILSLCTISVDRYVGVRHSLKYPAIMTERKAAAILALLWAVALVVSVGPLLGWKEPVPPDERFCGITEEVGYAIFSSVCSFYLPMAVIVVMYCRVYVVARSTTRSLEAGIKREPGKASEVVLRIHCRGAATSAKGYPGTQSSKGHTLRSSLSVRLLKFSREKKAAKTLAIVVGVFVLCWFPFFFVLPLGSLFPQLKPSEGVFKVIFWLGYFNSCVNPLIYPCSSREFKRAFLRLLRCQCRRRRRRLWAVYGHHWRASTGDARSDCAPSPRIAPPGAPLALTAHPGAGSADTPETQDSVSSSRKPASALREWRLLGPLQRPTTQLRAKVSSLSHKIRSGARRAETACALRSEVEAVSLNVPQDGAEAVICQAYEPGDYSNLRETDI
Nature of the test: (§1) Antagonist activity against adrenergic Alpha-1D receptor in rat thoracic aorta assessed as noradrenaline-induced response. It counts as functional, tissue-based. As to conditions: read-out: pA2 (converted).

The target in test [3] is Adrenergic receptors; alpha-1 A & B (Homo sapiens) (UniProt P35348+P35368). Nature of the test: Selectivity ratio of pKi for human adrenergic alpha-1a receptor to pKi for human adrenergic alpha-1b receptor. It counts as protein assay.
The target of test [4] is Alpha adrenergic receptor 1A and 1B (Rattus norvegicus) (UniProt P15823+P43140). Nature of the test: Selectivity ratio for rat adrenergic alpha-1A receptor over rat adrenergic Alpha-1B receptor. Type of test: functional.
The target in test [5] is T3, Alpha-1B adrenergic receptor (Homo sapiens, UniProt P35368).
T3 sequence (P35368 whole entry): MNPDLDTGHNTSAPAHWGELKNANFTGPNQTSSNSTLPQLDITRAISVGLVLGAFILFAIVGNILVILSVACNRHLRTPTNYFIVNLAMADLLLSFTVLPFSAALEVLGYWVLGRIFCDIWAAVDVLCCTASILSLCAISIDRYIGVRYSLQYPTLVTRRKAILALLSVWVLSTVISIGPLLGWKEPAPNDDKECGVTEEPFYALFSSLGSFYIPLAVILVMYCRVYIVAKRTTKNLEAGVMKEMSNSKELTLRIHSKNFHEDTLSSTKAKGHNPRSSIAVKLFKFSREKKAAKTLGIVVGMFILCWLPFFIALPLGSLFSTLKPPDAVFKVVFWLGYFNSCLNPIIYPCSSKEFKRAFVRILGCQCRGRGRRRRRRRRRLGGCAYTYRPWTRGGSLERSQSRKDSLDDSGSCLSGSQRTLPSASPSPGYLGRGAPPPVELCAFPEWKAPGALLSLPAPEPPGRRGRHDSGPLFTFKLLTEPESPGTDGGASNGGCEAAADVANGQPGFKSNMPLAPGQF
Nature of the test: Displacement of [3H]prazosin from human adrenergic alpha-1b receptor expressed in CHO cells. It counts as cell-based.

Test [6] addresses T4, Alpha-1B adrenergic receptor (Rattus norvegicus, UniProt P15823).
T4 sequence (P15823 whole entry): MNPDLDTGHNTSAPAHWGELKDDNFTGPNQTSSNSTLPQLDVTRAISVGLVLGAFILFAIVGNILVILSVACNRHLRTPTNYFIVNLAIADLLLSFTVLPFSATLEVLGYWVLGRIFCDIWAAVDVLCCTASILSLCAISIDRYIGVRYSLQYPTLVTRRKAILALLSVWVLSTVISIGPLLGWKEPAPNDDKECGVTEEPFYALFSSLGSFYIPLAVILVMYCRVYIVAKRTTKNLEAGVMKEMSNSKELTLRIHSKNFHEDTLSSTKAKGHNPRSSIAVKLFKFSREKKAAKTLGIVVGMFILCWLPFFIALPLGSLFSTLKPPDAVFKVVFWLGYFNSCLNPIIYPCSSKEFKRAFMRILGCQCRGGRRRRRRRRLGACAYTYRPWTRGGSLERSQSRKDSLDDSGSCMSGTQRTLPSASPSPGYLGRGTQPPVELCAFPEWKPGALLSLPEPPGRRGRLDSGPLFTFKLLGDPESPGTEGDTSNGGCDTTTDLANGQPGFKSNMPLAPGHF
Nature of the test: (§2) Antagonist activity against adrenergic Alpha-1B receptor in rat spleen assessed as inhibition of phenylephrine-induced response. Type of test: functional, tissue-based. As to conditions: read-out: pA2 (converted).

Test [7] has as its target T5, Alpha-1A adrenergic receptor (Rattus norvegicus, UniProt P43140).
T5 sequence (P43140 whole entry): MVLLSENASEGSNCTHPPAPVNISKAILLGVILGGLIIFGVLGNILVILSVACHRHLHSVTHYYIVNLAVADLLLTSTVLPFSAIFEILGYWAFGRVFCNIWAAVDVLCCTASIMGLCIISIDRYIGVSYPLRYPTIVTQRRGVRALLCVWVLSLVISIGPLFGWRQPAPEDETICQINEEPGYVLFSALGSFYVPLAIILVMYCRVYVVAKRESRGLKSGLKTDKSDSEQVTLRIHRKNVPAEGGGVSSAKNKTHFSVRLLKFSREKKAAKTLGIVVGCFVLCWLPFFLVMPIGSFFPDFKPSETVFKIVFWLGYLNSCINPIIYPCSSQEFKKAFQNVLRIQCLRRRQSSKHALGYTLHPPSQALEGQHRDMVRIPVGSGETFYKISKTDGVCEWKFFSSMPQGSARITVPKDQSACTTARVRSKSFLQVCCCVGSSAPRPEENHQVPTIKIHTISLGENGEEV
Nature of the test: Antagonist activity against adrenergic alpha-1A receptor in rat prostatic vas deferens assessed as inhibition of noradrenaline-induced contraction. Type of test: functional, tissue-based. As to conditions: read-out: pA2 (converted).

The target in test [8] is T6, Alpha-1D adrenergic receptor (Homo sapiens, UniProt P25100).
T6 sequence (P25100 whole entry): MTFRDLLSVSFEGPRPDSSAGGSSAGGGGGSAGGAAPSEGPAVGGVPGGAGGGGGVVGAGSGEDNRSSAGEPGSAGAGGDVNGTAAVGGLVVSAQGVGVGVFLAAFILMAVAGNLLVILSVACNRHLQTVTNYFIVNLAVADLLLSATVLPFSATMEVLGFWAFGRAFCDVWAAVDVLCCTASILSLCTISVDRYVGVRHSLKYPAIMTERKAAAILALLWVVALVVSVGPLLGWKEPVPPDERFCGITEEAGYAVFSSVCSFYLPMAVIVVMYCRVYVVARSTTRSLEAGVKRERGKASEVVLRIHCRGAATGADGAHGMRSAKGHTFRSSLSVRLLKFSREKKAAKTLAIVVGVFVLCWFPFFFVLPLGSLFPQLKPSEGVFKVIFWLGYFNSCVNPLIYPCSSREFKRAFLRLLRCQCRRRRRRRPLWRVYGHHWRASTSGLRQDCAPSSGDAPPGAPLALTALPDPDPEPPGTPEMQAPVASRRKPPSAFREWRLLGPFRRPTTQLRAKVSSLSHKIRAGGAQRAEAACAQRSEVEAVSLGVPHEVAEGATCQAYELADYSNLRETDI
Nature of the test: Displacement of [3H]prazosin from human adrenergic alpha-1d receptor expressed in CHO cells. It counts as cell-based.

In test [9] the target is Alpha adrenergic receptor (1a and 1d) (Homo sapiens) (UniProt P35348+P25100). Nature of the test: Selectivity ratio of pKi for human adrenergic alpha-1a receptor to pKi for human adrenergic alpha1d receptor. It counts as protein assay.
The target of test [10] is Alpha adrenergic receptor 1A and 1D (Rattus norvegicus) (UniProt P23944+P43140). Nature of the test: Selectivity ratio for rat adrenergic alpha-1A receptor over rat adrenergic Alpha-1D receptor. It counts as functional.
Another test is filed under the species Homo sapiens. Nature of the test: Selectivity ratio of pKi for human adrenergic alpha-1d receptor to pKi for human adrenergic alpha-1b receptor.
Test [11] has as its target T7, Alpha-1D adrenergic receptor (Rattus norvegicus) (UniProt P23944).
T7 sequence (whole entry): T2 sequence (P23944 whole entry)
The description is as §1. Type of test: functional, tissue-based.

For test [12], the target named is T8, Alpha-1B adrenergic receptor (Rattus norvegicus) (UniProt P15823).
T8 sequence (whole entry): T4 sequence (P15823 whole entry)
Described as §2. Type of test: functional, tissue-based.

In general, Ki refers to the equilibrium dissociation constant of an inhibitor or competing ligand from its target. Consider `COc1cc2nc(N3CCN(C(=O)c4ccc(C)o4)[C@H]4CCCC[C@H]43)nc(N)c2cc1OC`, for which the Selectivity ratio in the test filed under Rattus norvegicus is 41; in [3], 27; in test [4], 148; in test [9], 5; in test [10] it was 4; in the test listed under Homo sapiens, 6. The Ki in test [1] is 23.4 nM; in [5], 0.871 nM; in test [8] it was 4.79 nM. The results for the Kb in [2], in test [6] and in test [7] were 91.2 nM, 2.24 nM and 331 nM, respectively.
A word on the pKb: it is the Kb on a negative log10 scale, so that one unit is a factor of ten. `COc1cc2nc(N3CCN(C(=O)c4ccccc4)[C@H]4CCCC[C@H]43)nc(N)c2cc1OC`: the Selectivity ratio stood at 12 in the test filed under Rattus norvegicus; 8.5 in test [3]; 21 in [4]; 1 in test [9]; 2 in test [10]; 7 in the test filed under Homo sapiens. For the same compound, the Ki in [1] is 4.17 nM; in test [5], 0.49 nM; in test [8], 3.24 nM. Besides, the pKb amounted to 7.76 in test [11] and 8.83 in test [12]. Moreover, the Kb in test [7] is 30.9 nM.
